Results on 4 molecules are retold here after paper PMC6071143, “(−)-Homosalinosporamide A and Its Mode of Proteasome Inhibition: An X-ray Crystallographic Study” (Marine Drugs, 2018).

Each structure is given as a SMILES string. Where two headings read alike, the source gives them in different places.

In experiment [1] the target is yeast 20S proteasome, caspase-like (C-L) activity. The conditions noted are these: luminogenic enzyme assay; cited from earlier work.
Experiment [2] has as its system yeast 20S proteasome, chymotrypsin-like (ChT-L) activity. The conditions noted are these: luminogenic enzyme assay; cited from earlier work.
The subject of the next experiment is human proteasome. Also on record: method as in PMID 16286248. The following applies: cited from earlier work.
The test system of experiment [3] is yeast 20S proteasome, trypsin-like (T-L) activity. The conditions noted are these: luminogenic enzyme assay; cited from earlier work.
Experiment [4] deals with T1, yeast 20S proteasome (Saccharomyces cerevisiae, UniProt P25043+P30656+P38624).
T1 construct: Crystals of the 20S proteasome from S. cerevisiae were grown in hanging drops; endogenous in cells; host or cells: S. cerevisiae (complex purified from yeast by a cited earlier protocol)
The following applies: cited from earlier work.

The test system of experiment [5] is yeast 20S proteasome, chymotrypsin-like (ChT-L) activity. The experiment is described as follows: luminogenic enzyme assay, chymotrypsin-like activity. The experiment is classed as biochemical. The method, then:
The proteasome inhibitory activity of the unnatural analog, homoSalA, was measured in a luminogenic enzyme assay in comparison to SalA enabling assessment of all three active sites of yCP.

Experiment [6] has as its target T1, yeast 20S proteasome. The experiment is described as follows: X-ray crystallography of yeast 20S proteasome:ligand complex, mode of action. Type of experiment: binding. The following applies: yCP:homoSalA crystal structure, crystals soaked at 5 mM; no tetrahydropyran ring formation. The method, then:
Therefore, we elucidated the yCP:homoSalA complex at molecular resolution to investigate its mode of action. Active yCP crystals were soaked with final compound concentrations of 5 mM for 24 h. Subsequently, diffraction data were recorded to 2.9 Å resolution (Table 2) and data processing, as well as structural refinement, were performed according to previous protocols. The crystallographic data were refined to a final Rfree value of 23.3% with root mean square deviation bond and angle values less than 0.007 Å and 1.1°, respectively (PDB ID 6GOP, Table 2). […] While the active site nucleophile Thr1O^γ opens the β-lactone ring, the positively charged Thr1NH3^+-terminus acts as a Brønsted acid generating a C4-hydroxyl group from the hydrolyzed β-lactone. […]
While the electron density map offered no evidence for fluoride elimination, the complex structure determined after 24 h crystal soaking time depicts complete displacement of the leaving group. […]
Crystals of the 20S proteasome from S. cerevisiae were grown in hanging drops at 20 °C as previously described and incubated for […] with homoSalA at 5 mM. […] Crystals were soaked in a cryoprotecting buffer (30% MPD, 20 mM of magnesium acetate, 100 mM MES (pH 6.9)) and frozen in a stream of liquid nitrogen gas at 100 K. X-ray intensities were evaluated using the XDS program package. […]

The test system of experiment [7] is chymotrypsin-like activity of the proteasome. Also on record: method as in PMID 7732382. The conditions noted are these: cited from earlier work.

On to `C[C@@]12OC(=O)[C@]1([C@@H](O)[C@@H]1C=CCCC1)NC(=O)[C@@H]2CCCl` [(–)-SalA (1), salinosporamide A], for which the IC50 in experiment [1] was 111 ± 22 nM; in experiment [2], 0.8 ± 0.08 nM; with human proteasome it was 1.3 nM; in experiment [3], 39 ± 7 nM. The “ChT-L Activity 20S Proteasome (IC50, nM)” value in experiment [2] is “sub-nanomolar range”. Besides, the “mode of action (reversibility of proteasome inhibition)” value at yeast 20S proteasome [4] (chloro-ethyl moiety forms a tetrahydrofuran ring) was “irreversibly blocks the CP”.
Take `C[C@@]12OC(=O)[C@]1([C@@H](O)[C@@H]1C=CCCC1)NC(=O)[C@@H]2CCCCl` [(–)-homoSalA (3), (–)-homosalinosporamide A]: the “potency towards caspase- and trypsin-like activities relative to chymotrypsin-like activity” value in experiment [5] is given as “two orders of magnitude less potent”. Further, the IC50 is 144 ± 12 nM in experiment [1], 0.7 ± 0.04 nM in experiment [2] and 118 ± 28 nM in experiment [3]. Moreover, the “ChT-L Activity 20S Proteasome (IC50, nM)” value in experiment [2] is on record as “sub-nanomolar range”. For the same molecule, the “mode of action (reversibility of proteasome inhibition)” value at yeast 20S proteasome [6] was “reversible binder”.
For `CC(C)[C@H](O)[C@@]12NC(=O)[C@H](C)[C@@H]1OC2=O` [omuralide (5), omuralide], the IC50 in experiment [7] was 49 nM.
Regarding `CC[C@H]1C(=O)N[C@@]2([C@@H](O)[C@@H]3C=CCCC3)C(=O)O[C@@]12C` [SalB, salinosporamide B], the “mode of action (reversibility of proteasome inhibition)” value on yeast 20S proteasome [4] was “slow reversible CP inhibitor”.
